Laboratory results from article PMC6315694, “Synthesis of Pseudellone Analogs and Characterization as Novel T-type Calcium Channel Blockers” (Marine Drugs, 2018).
Like-named read-outs stand apart in the source and are kept apart here.

What was measured:
Type in all cases: cell-based
[1] = biological target: CaV3.2 (Homo sapiens, UniProt O95180); experiment: T-type calcium channel window current FLIPR assay, CaV3.2
Protocol: (§1) The human embryonic kidney 293 (HEK 293) cell lines (from Emmanuel Bourinet, Montpellier, France) stably expressing CaV3.2 or CaV3.3 were cultured under 5% carbon dioxide at 37 °C in Dulbecco’s Modified Eagle Medium (DMEM) Glutamax (Gibco, Life Technologies, Carlsbad, CA, USA) supplemented with 10% (v/v) fetal bovine serum (FBS), 100 U/mL penicillin, 100 μg/mL streptomycin (Gibco, Life Technologies), and 750 μg/mL geneticin (G418) (Gibco, Life Technologies). The Chinese Hamster Ovary (CHO) cell lines (Emmanuel Bourinet, Montpellier, France) expressing CaV3.1 were cultured under 5% carbon dioxide at 37 °C in Alpha Minimum Essential Media (MEM) Glutamax (Gibco, Life Technologies), supplemented with 10% (v/v) fetal bovine serum (FBS) and 300 μg/mL geneticin (G418) (Gibco, Life Technologies). The human neuroblastoma SH-SY5 Y cells (Victor Diaz, Goettingen, Germany) were cultured under 5% carbon dioxide at 37 °C in RPMI 1640 antibiotic-free medium (Invitrogen, Carlsbad, CA, USA), supplemented with 15% FBS and 2 mM GlutaMAX™ (Invitrogen). D-PBS (Gibco, Life Technologies) was used to wash the cells, and 0.25% Trypsin-EDTA (Gibco, Life Technologies) was used to detach cells from the flask surface. They were split in a ratio of 1:5 (ideally 1000 cells/cm^2) when they reached 70%–80% confluence (every 2–3 days). Transiently transfected CaV3.1HEK293 T cells were used in FLIPR Assays. HEK 293 T cells were cultured under 5% carbon dioxide at 37 °C in DMEM supplemented with 10% (v/v) FBS. D-PBS was used to wash the cells, and 0.25% Trypsin-EDTA was used to detach cells from the flask surface. The cells were split and seeded at 6 million cells per T175 flask, to reach 70%–80% confluence after 24 h. The next day, 12 μg DNA of human CaV3.1 was incubated in 900 μL serum-free DMEM with 36 μL FuGENE HD transfection reagent (Promega Corporation, Madison, WI, US) (1:3 DNA/Fugene ratio) for 20 min, and then the mixture was added into the cell flask slowly, drop by drop. After the transfection, the cells were cultured under 5% carbon dioxide at 37 °C for 24 h and then moved to a 28 °C incubator.
HEK 293 cells stably expressing CaV3.2 or CaV3.3 were seeded into 384-well black wall clear bottom plates (Corning, Lowell, MA, USA) at a density of 30,000 cells per well. Transiently transfected CaV3.1HEK293 T cells were seeded into 384-well black wall clear bottom plates at a density of 60,000 cells per well. Once the cells reached 90%–95% confluence after 24 h, the media were removed from the wells and replaced with 20 μL of 10% calcium 4 dye (Molecular Devices, Sunnyvale, CA, USA) in HBSS-HEPES (containing 5 mM KCl, 10 mM HEPES, 140 mM NaCl, 10 mM glucose, and 0.5 mM CaCl2, pH 7.4) with 0.1% bovine serum albumin (BSA). The cells were incubated for 30 min at 37 °C in the presence of 5% carbon dioxide. Each well on the reagent plates for the first addition contained 15 μL different concentrations of compounds dissolved in HBSS-HEPES containing 0.1% BSA and <0.1% DMSO and was incubated for 20 min after loading. Positive and negative controls contained 15 μL of HBSS-HEPES (0.1% BSA) alone. The plates were placed in the FLIPR^TETRA (Molecular Devices, Sunnyvale, CA, USA) programmed to measure maximum fluorescence intensity following a second addition of the agonist 5 mM CaCl2. The data acquisition parameters were adjusted as follows: Baseline fluorescence of 1500–2000 arbitrary fluorescence units (AFU), emission wavelength of 515–575 nm, and excitation wavelength of 470–495 nm. HBSS-HEPES (0.1% BSA) was used in the second addition as a negative control. One fluorescence reading was taken before the second addition. Then the fluorescence readings were recorded every two seconds for 300 s. Raw fluorescence readings in the form of relative light units were converted to response over baseline using ScreenWorks® (Molecular Devices, version 3.2.0.14) software.
Data were plotted and analyzed using GraphPad Prism v7.0 (GraphPad Software Inc., San Diego, CA, USA).

[2] = biological target: recombinant hCaV3.3 channels (Homo sapiens, UniProt Q9P0X4); experiment: Whole-cell patch-clamp QPatch 16 X, CaV3.3
Protocol: as §1
(§2) Whole-cell patch-clamp experiments were performed on an automated electrophysiology platform QPatch 16 X (Sophion Bioscience A/S, Ballerup, Denmark) in single-hole configuration using 16-channel planar patch chip QPlates (Sophion Bioscience A/S). The extracellular recording solution contained, in mM: TEACl 157, MgCl2 0.5, CaCl2 5, and HEPES 10; pH 7.4 adjusted with TEAOH; and osmolarity 320 mOsm. The intracellular pipette solution contained, in mM: CsF 140, EGTA 1, HEPES 10, and NaCl 10; pH 7.2 adjusted with CsOH; and osmolarity 325 mOsm. […]
(§3) Data were plotted and analyzed using GraphPad Prism v7.0 (GraphPad Software Inc., San Diego, CA, USA). […]

[3] = biological target: recombinant hCaV3.2 channels (Homo sapiens, UniProt O95180); experiment: Whole-cell patch-clamp QPatch 16 X, CaV3.2
Protocol: as §1, §2, §3

recombinant hCaV3.3 channels, sequence (Q9P0X4 whole entry): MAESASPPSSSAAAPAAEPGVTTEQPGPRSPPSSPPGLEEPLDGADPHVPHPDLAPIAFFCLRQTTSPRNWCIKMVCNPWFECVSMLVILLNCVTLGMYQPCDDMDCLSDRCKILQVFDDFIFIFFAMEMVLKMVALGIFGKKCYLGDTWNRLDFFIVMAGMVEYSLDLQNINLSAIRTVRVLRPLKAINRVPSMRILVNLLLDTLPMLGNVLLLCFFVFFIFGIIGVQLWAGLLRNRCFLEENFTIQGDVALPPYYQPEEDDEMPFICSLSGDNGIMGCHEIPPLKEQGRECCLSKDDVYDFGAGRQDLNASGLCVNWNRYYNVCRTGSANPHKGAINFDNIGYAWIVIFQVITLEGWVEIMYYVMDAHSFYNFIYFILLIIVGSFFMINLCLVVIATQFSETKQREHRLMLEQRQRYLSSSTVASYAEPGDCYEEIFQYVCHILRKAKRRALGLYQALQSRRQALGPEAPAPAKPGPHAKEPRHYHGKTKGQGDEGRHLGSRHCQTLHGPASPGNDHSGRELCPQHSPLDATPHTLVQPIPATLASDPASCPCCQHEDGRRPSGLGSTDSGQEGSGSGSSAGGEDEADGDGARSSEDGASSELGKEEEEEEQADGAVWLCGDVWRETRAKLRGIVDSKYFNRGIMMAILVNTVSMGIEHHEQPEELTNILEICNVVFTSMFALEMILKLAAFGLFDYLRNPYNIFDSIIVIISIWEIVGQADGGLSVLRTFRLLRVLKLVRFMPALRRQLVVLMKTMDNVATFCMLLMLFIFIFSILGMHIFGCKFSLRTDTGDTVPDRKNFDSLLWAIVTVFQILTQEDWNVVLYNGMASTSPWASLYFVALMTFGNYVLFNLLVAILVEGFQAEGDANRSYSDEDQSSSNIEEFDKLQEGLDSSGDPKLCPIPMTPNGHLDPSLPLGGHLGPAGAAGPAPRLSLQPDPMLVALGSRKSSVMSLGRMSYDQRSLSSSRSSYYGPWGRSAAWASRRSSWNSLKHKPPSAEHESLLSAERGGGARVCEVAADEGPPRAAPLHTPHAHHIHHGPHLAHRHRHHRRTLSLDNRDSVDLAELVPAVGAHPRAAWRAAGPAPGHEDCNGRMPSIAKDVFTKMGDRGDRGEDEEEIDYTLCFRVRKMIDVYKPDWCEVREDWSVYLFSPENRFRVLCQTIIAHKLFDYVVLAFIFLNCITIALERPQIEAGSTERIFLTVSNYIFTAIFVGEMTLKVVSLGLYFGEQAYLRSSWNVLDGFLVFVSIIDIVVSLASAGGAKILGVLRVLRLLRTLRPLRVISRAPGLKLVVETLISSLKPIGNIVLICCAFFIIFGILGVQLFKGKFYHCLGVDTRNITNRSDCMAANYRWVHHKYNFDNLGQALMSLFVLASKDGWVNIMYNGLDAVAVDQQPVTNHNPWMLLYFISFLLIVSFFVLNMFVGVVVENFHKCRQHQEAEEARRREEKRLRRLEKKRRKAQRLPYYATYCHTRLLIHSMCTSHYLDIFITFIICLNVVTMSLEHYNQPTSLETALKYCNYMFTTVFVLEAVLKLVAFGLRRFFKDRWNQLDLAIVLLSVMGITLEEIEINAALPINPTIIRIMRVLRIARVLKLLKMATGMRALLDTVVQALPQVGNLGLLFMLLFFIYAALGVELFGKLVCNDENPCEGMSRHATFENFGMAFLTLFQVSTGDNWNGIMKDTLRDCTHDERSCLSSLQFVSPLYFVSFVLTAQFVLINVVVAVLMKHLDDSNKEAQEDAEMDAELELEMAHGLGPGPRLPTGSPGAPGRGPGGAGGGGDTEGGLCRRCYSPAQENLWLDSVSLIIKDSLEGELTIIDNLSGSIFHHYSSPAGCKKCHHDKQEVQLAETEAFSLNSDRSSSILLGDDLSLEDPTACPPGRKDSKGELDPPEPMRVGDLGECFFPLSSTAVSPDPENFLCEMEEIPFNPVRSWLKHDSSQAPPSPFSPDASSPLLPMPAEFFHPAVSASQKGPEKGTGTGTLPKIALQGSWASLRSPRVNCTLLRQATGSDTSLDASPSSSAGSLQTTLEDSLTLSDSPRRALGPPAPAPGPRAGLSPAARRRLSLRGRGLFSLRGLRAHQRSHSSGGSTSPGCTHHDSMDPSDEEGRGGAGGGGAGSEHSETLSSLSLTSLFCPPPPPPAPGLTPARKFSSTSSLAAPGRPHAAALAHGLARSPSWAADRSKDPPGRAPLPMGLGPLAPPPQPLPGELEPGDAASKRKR
CaV3.2, sequence (O95180 whole entry): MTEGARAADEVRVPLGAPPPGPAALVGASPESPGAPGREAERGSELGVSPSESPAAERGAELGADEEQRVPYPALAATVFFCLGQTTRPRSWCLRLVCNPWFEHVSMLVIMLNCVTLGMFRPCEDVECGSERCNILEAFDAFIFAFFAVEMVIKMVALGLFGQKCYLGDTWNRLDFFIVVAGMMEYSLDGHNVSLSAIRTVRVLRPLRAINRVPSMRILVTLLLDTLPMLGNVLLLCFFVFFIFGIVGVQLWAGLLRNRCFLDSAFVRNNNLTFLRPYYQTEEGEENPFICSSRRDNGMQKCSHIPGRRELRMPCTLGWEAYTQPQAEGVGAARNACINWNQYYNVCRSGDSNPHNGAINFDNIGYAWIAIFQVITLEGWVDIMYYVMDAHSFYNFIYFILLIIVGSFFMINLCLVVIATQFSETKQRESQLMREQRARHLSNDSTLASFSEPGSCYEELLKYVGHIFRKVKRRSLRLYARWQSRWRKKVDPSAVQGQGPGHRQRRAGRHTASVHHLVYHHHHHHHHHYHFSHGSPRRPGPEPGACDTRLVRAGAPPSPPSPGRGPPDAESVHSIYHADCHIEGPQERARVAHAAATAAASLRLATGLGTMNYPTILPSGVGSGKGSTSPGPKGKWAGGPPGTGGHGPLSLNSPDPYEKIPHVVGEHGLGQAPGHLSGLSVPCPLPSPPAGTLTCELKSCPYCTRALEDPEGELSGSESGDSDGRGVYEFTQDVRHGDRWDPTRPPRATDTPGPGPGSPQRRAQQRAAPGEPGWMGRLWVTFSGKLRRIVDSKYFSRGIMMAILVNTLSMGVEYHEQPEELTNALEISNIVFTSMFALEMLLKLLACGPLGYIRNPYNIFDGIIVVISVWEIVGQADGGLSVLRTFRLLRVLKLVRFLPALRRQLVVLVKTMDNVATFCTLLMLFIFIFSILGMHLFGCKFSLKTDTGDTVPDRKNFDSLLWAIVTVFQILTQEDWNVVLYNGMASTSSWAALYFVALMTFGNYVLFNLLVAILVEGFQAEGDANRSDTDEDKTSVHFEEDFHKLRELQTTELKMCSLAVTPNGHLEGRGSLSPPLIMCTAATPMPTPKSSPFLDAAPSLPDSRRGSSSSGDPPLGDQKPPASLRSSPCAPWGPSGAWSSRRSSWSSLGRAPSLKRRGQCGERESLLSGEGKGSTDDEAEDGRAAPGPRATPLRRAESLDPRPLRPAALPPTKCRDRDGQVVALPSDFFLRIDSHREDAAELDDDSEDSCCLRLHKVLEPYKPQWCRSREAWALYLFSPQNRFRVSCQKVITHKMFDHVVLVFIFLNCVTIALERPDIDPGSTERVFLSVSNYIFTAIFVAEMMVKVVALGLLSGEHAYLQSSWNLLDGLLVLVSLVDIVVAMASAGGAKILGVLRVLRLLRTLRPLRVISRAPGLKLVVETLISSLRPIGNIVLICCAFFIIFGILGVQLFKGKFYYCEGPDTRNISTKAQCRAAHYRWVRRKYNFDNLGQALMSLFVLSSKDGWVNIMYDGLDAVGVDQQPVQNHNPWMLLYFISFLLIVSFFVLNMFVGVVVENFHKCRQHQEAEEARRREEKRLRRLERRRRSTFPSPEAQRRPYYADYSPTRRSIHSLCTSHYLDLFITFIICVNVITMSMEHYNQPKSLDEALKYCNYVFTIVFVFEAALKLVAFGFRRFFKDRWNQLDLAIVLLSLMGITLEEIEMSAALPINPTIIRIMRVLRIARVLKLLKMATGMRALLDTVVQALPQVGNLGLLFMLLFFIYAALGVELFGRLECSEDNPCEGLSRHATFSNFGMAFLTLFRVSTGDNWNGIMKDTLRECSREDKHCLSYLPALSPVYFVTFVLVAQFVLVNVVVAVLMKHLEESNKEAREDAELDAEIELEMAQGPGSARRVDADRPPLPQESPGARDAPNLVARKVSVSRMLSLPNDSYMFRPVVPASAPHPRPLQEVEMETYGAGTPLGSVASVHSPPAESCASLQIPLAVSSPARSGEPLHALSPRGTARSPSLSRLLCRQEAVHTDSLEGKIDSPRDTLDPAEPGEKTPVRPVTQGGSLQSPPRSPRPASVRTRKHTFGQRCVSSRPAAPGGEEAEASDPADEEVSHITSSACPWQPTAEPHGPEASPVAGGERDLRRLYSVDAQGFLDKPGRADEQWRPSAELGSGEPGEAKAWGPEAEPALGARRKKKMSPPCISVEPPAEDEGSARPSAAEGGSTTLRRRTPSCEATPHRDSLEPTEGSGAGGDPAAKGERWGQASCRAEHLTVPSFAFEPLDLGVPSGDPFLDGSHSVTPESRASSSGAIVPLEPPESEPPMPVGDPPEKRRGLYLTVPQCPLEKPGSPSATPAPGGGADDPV
recombinant hCaV3.2 channels, sequence (O95180 whole entry): as above

SMILES: COC(=O)[C@H](Cc1c[nH]c2ccccc12)NC(=O)C(C)(c1c[nH]c2ccccc12)c1c[nH]c2ccccc12 [Compound 3, Methyl (2,2-di(1H-indol-3-yl)propanoyl)-L-tryptophanate]
- Kind of block of the CaV3.2 window current, in words ([1]; FLIPR): potent partial blocking
- IC50 ([1]; FLIPR window current assay, HEK 293 stable, N = 3, mean ± SEM, read-out: IC50 CaV3.2 (LVA CaVs)): 6.59 ± 0.66 µM
- Emax ([1]; FLIPR, n = 3, read-out: Emax, inhibition for CaV3.2): 56.9%
- IC50 ([1]; FLIPR, representative curve, n = 4, read-out: IC50 of the representative concentration-response curve, CaV3.2 window current): 5.77 µM
- Emax ([2]; QPatch whole-cell, full inhibition, read-out: Emax value, inhibition of CaV3.3 whole-cell current): ≥ 95%
- inhibition at 0.2 µM ([2]; QPatch, 200 nM compound, read-out: Inhibition of the CaV3.3 peak current): < 10%
- IC50 ([2]; QPatch, 200 ms steps to Vmax (−10 mV) from holding −90 mV, n = 5, mean ± SEM, read-out: IC50 CaV3.3 whole-cell current): 15.8 ± 2.28 µM
- Voltage-dependence of steady-state inactivation of CaV3.3, in words ([2]; QPatch, in the presence of compound): not significantly shifted
- Half-maximal steady-state inactivation V50 of CaV3.2 in the presence of compound ([3]; 0.6 µM compound, control V50 −65.40 ± 1.91 mV (n = 9), n = 4–5): −76.36 ± 1.56 mV
- Emax ([3]; QPatch whole-cell, full inhibition, read-out: Emax value, inhibition of CaV3.2 whole-cell current): ≥ 95%
- IC50 ([3]; QPatch, 200 ms steps to Vmax (−20 mV) from holding −90 mV, n = 4–5, mean ± SEM, read-out: IC50 CaV3.2 whole-cell current): 8.82 ± 2.3 µM
- Shift of half-maximal inactivation V50 of CaV3.2 to hyperpolarized potentials ([3]; steady-state inactivation, 0.6 µM compound, versus control): 11 mV
